Data set [1] has as its system HIV-2 (LAV-2 ROD). Kind of data set: MTT screen of HIV-2 infected MT-4 cells (antiviral activity). In kind it is cell-based. To be noted: for ED50: 100 CCID50, 5 days, MTT. As to the method:
(§1) The compounds were tested in a screen by the MTT method (J. Virol. Methods […]: 309-321 [1988]). MT-4 cells (2.5×10^4 /well) were infected with HIV-1 (HTLV-IIIB) or HIV-2 (LAV-2 ROD) at a concentration of 100 CCID50 and incubated in the presence of various concentrations of the test compounds, which were added immediately after infection with the virus. After 5 days culture at 37° C. in a CO2 incubator, the number of viable cells was assessed by the MTT (tetrazolium) method. […] The potential therapeutic usefulness was assessed by calculating a Selectivity Index (SI) corresponding to the ratio of CD50 to ED50.

In data set [2] the test system is MT-4 cells. In words: in vitro. As to the method: as §1
Data set [3] relates to HIV-1 (HTLV-IIIB). In words: microbe, parasite or virus in culture. In kind it is cell-based. Conditions: for Selectivity Index (SI), ratio of CD50 to ED50 / ED50: HIV-1, MT-4 cells; for ED50: 100 CCID50, 5 days, MTT. As to the method: as §1
Data set [4] is described as follows: in vitro. To be noted: human, mt-4 cells. The method, then: as §1
The subject of data set [5] is cells. Conditions: in words; cited from earlier work.
The test system of data set [6] is reverse transcriptase. Conditions: in words; cited from earlier work.
In data set [7] the test system is herpes virus. Conditions: in words; cited from earlier work.
Data set [8] has as its system HIV. Conditions: in words; cited from earlier work.

Several values for one entry are separate records, joined by “and”; a condition that tells them apart may be missing. Identical values can stand only once.

Consider K13 [Ce(SiW11 O39)2 ]26H2 O, for which, in data set [1], the “Selectivity Index (SI), ratio of CD50 to ED50” value (from here on “Selectivity Index (SI), ratio”) was > 6357 and the ED50 came to 0.157 µg/mL. Besides, the CD50 in data set [2] (human, mt-4 cells, 120 h) is > 1000.0 µg/mL. Moreover, in data set [3], the “Selectivity Index (SI), ratio” value is given as > 2561 and the ED50 amounted to 0.39 µg/mL.
By CC50 is commonly meant the concentration at which the toxic effect on the cells reaches its halfway point. `Cc1cn([C@H]2C[C@H](N=[N+]=[N-])[C@@H](CO)O2)c(=O)[nH]c1=O` [AZT, reference compound]: the CC50 at 120 h in data set [4] was > 1 µM. Besides, the “toxicity (in words)” value in data set [2] is on record as “rather high toxicity”. Moreover, the toxicity to cells result in data set [5] is reported as “high toxicity to cells”. Further, the “Selectivity Index (SI), ratio” value in data set [3] is 125 and > 125. The EC50 in data set [3] (Human immunodeficiency virus 1, IIIB, MT4, 120 h, read-out: ED50) was < 0.008 µM.
For K6 [SiCo(OH2)W11 O39 ]yH2 O, in data set [1], the “Selectivity Index (SI), ratio” value was > 15 and the ED50 was < 2.0 µg/mL. Also, in data set [3], the “Selectivity Index (SI), ratio” value is given as > 52 and the ED50 is < 2.0 µg/mL.
On to K5 [BPt(OH2)W11 O39 ]yH2 O, for which, in data set [1], the “Selectivity Index (SI), ratio” value was found to be 49 and the ED50 worked out at 6.21 µg/mL. Also, in data set [3], the “Selectivity Index (SI), ratio” value was found to be 198 and the ED50 amounted to 1.66 µg/mL.
For K6 [SiCu(OH2)W11 O39 ]yH2 O, in that order: > 125, < 2.0 µg/mL, > 84 and < 2.0 µg/mL.
Take “(C5 H5 NH^+)6 [SiCo(C5 H5 N)W11 O39 ]yH2 O [Compound A]”: the “Selectivity Index (SI), ratio” value is recorded as > 415 in data set [1] and > 502 in data set [3]. The figures for the ED50 in data set [1] and in data set [3] were 2.41 µg/mL and 1.99 µg/mL, respectively. Moreover, the CD50 in data set [2] (human, mt-4 cells, 120 h) is > 1000.0 µg/mL.
With “NaSb9 W21 O86 [HPA-23, reference compound]”, the reverse transcriptase inhibition result in data set [6] is “reverse transcriptase inhibitor”. Besides, the “Selectivity Index (SI), ratio” value was < 1 in data set [1] and 3 in data set [3]. The ED50 in data set [1] was > 4 µg/mL; in data set [3], 2.8 µg/mL. Also, the CD50 in data set [2] (HIV-1, MT-4 cells, 5 days, 37° C., MTT) came out at 7.4 µg/mL; in data set [2] (HIV-2, MT-4 cells, 5 days, 37° C., MTT), 2.4 µg/mL.
Turning to K7 PW10 Ti2 O40, the “activity against herpes virus” value in data set [7] was “activity against herpes virus”.
As for K5 [PNi(OH2)W11 O39 ]14H2 O, in data set [1], the “Selectivity Index (SI), ratio” value was < 1 and the ED50 is > 250.0 µg/mL. In addition, in data set [3], the “Selectivity Index (SI), ratio” value was < 1 and the ED50 is > 250.0 µg/mL.
Consider “((CH3)3 NH^+)5 [SiSn(CH3)W11 O39 ]yH2 O [Compound C]”, for which the “Selectivity Index (SI), ratio” value was determined as 19 in data set [1] and 40 in data set [3]. Besides, the ED50 in data set [1] stood at 3.48 µg/mL; in data set [3], 0.57 µg/mL.
Turning to K6 [BRh(OH2)W11 O39 ]14H2 O, in data set [1], the “Selectivity Index (SI), ratio” value was 18 and the ED50 worked out at 31.58 µg/mL. In data set [3], the “Selectivity Index (SI), ratio” value was 97 and the ED50 stood at 5.88 µg/mL.
Regarding K7 [BCo(OH2)W11 O39 ]yH2 O, in data set [1], the “Selectivity Index (SI), ratio” value is < 1 and the ED50 is > 200.0 µg/mL. In data set [3], the “Selectivity Index (SI), ratio” value is 47 and the ED50 was found to be 2.74 µg/mL.
For K7 [BCu(OH2)W11 O39 ]yH2 O, in that order: 62, 2.56 µg/mL, 32 and 3.51 µg/mL.
Regarding K5 BW12 O40, in data set [7], the “activity against herpes virus” value is “activity against herpes virus”.
In the case of silicotungstate acid [H4 SiW12 O40], the “activity against HIV” value in data set [8] is on record as “activity against HIV”.
As to K6 [SiNi(OH2)W11 O39 ]15H2 O, in data set [1], the “Selectivity Index (SI), ratio” value worked out at 55 and the ED50 was found to be 3.58 µg/mL. The same compound registered a CD50 in data set [2] (human, mt-4 cells, 120 h) of 198.43 µg/mL. In data set [3], the “Selectivity Index (SI), ratio” value is 103 and the ED50 turned out to be 1.93 µg/mL.
Regarding “(C6 H11 NH3^+)6 [SiCo(C6 H11 NH2)W11 O39 ]yH2 O [Compound B]”, in data set [1], the “Selectivity Index (SI), ratio” value came to 26 and the ED50 amounted to 3.01 µg/mL. In data set [3], the “Selectivity Index (SI), ratio” value worked out at 99 and the ED50 was 0.98 µg/mL.
For K5 [SiGa(OH2)W11 O39 ]yH2 O, in that order: 14, 6.19 µg/mL, 100 and 1.06 µg/mL.
For K5 [PCu(OH2)W11 O39 ]yH2 O, in that order: > 68, < 2.0 µg/mL, > 82 and 3.04 µg/mL.
For K6 [BGa(OH2)W11 O39 ]yH2 O, in that order: 298, 1.62 µg/mL, 5151 and 0.12 µg/mL.
